Experimental data as given in ChEMBL document CHEMBL1131922, “Synthesis and biological evaluation of cryptophycin analogs with substitution at C-6 (fragment C region)” (Bioorg Med Chem Lett, 1999).

Test system: CCRF-CEM
Test: In vitro cytotoxicity against human leukemia CCRF-CEM cell line
Type: functional, cell-based

Compound	IC50 [nM]
COc1ccc(C[C@H]2NC(=O)/C=C/C[C@@H]([C@H](C)[C@@H](O)[C@@H](Cl)c3ccccc3)OC(=O)[C@H](CC(C)C)OC(=O)C3(CCCCC3)CNC2=O)cc1Cl	110
COc1ccc(C[C@H]2NC(=O)/C=C/C[C@@H]([C@H](C)[C@H]3O[C@@H]3c3ccccc3)OC(=O)[C@H](CC(C)C)OC(=O)C3(CC3)CNC2=O)cc1Cl	0.16
CCCC1(CCC)CNC(=O)[C@@H](Cc2ccc(OC)c(Cl)c2)NC(=O)/C=C/C[C@@H]([C@H](C)[C@@H](O)[C@@H](Cl)c2ccccc2)OC(=O)[C@H](CC(C)C)OC1=O	8.7
COc1ccc(C[C@H]2NC(=O)/C=C/C[C@@H]([C@H](C)[C@@H](O)[C@@H](Cl)c3ccccc3)OC(=O)[C@H](CC(C)C)NC(=O)C3(CC3)CNC2=O)cc1Cl	0.01
CCC1(CC)CNC(=O)[C@@H](Cc2ccc(OC)c(Cl)c2)NC(=O)/C=C/C[C@@H]([C@H](C)[C@H]2O[C@@H]2c2ccccc2)OC(=O)[C@H](CC(C)C)OC1=O	1.1
COc1ccc(C[C@H]2NC(=O)/C=C/C[C@@H]([C@H](C)[C@@H](O)[C@@H](Cl)c3ccccc3)OC(=O)[C@H](CC(C)C)OC(=O)C3(CC3)CNC2=O)cc1Cl	0.014
CCCC1(CCC)CNC(=O)[C@@H](Cc2ccc(OC)c(Cl)c2)NC(=O)/C=C/C[C@@H]([C@H](C)[C@H]2O[C@@H]2c2ccccc2)OC(=O)[C@H](CC(C)C)OC1=O	8.5
COc1ccc(C[C@H]2NC(=O)/C=C/C[C@@H]([C@H](C)[C@@H](O)[C@@H](Cl)c3ccccc3)OC(=O)[C@H](CC(C)C)OC(=O)C(C)(C)CNC2=O)cc1Cl	0.05
COc1ccc(C[C@H]2NC(=O)/C=C/C[C@@H]([C@H](C)[C@@H](O)[C@@H](Cl)c3ccccc3)OC(=O)[C@H](CC(C)C)NC(=O)C(C)(C)CNC2=O)cc1Cl	0.016
COc1ccc(C[C@H]2NC(=O)/C=C/C[C@@H]([C@H](C)[C@@H](O)[C@@H](Cl)c3ccccc3)OC(=O)[C@H](CC(C)C)OC(=O)C3(CCCC3)CNC2=O)cc1Cl	0.4
CCC1(CC)CNC(=O)[C@@H](Cc2ccc(OC)c(Cl)c2)NC(=O)/C=C/C[C@@H]([C@H](C)[C@@H](O)[C@@H](Cl)c2ccccc2)OC(=O)[C@H](CC(C)C)OC1=O	1.6
COc1ccc(C[C@H]2NC(=O)/C=C/C[C@@H]([C@H](C)[C@H]3O[C@@H]3c3ccccc3)OC(=O)[C@H](CC(C)C)OC(=O)C3(CCCCC3)CNC2=O)cc1Cl	63
COc1ccc(C[C@H]2NC(=O)/C=C/C[C@@H]([C@H](C)[C@H]3O[C@@H]3c3ccccc3)OC(=O)[C@H](CC(C)C)OC(=O)C3(CCCC3)CNC2=O)cc1Cl	0.3
COc1ccc(C[C@H]2NC(=O)/C=C/C[C@@H]([C@H](C)[C@H]3O[C@@H]3c3ccccc3)OC(=O)[C@H](CC(C)C)OC(=O)C(C)(C)CNC2=O)cc1Cl [CRYPTOPHYCIN 52]	0.02
